Assays:
Format in all cases: cell-based
dopamine D1 receptor = molecular target: T1, dopamine D1 receptor (Homo sapiens, UniProt P21728); assay: cAMP in Cos-7 cells transfected with dopamine D1 receptor; details: 10 μM, dopamine D1 (FIG. 7)
T1 construct: expressed in transfected cells; host or cells: Cos-7 cells
Method: (§1) A typical protocol for the electroporation method as applied to Cos-7 cells is described as follows. Cells to be used for transfection are split 24 hours prior to the transfection to provide flasks which are subconfluent at the time of transfection. The cells are harvested by trypsinization resuspended in their growth media and counted. 5×10^6 cells are suspended in 300 μl of DMEM and placed into an electroporation cuvette. 8 μg of receptor DNA plus 8 μg of any additional DNA needed (e.g. G protein expression vector, reporter construct, antibiotic resistance marker, mock vector, etc.) is added to the cell suspension, the cuvette is placed into a BioRad Gene Pulser and subjected to an electrical pulse (Gene Pulser settings: 0.25 kV voltage, 950 μF capacitance). Following the pulse, 800 μl of complete DMEM is added to each cuvette and the suspension transferred to a sterile tube. Complete medium is added to each tube to bring the final cell concentration to 1×10^5 cells/100 μl. […]
(§2) The receptor-mediated stimulation or inhibition of cyclic AMP (cAMP) formation may be assayed in cells expressing the receptors. […] The plates are stored at 4° C. for 15 min, and the cAMP content in the stopping solution is measured by radioimmunoassay. Radioactivity may be quantified using a gamma counter equipped with data reduction software. […]

serotonin 5-HT4 receptor = molecular target: T2, serotonin 5-HT4 receptor (Homo sapiens, UniProt Q13639); assay: cAMP in Cos-7 cells transfected with serotonin 5-HT4 receptor; details: 10 μM, serotonin 5-HT4 (FIG. 7)
T2 construct: expressed in transfected cells; host or cells: Cos-7 cells
T2 sequence (Q13639 whole entry): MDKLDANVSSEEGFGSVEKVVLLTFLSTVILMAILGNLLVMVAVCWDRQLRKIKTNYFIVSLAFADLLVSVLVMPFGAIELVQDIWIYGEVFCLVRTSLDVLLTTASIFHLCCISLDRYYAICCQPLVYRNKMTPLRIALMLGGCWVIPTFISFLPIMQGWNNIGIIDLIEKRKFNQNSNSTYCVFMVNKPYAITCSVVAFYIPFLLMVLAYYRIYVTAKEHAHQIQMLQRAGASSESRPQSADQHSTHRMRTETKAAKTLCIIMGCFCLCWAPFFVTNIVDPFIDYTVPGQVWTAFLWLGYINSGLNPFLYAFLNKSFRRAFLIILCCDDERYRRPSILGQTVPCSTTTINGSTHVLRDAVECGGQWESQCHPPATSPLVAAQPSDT
Method: as §1, §2

SNORF25 = molecular target: T3, SNORF25 (Homo sapiens, UniProt Q8TDV5); assay: Stimulation of cAMP release by CHO cells stably expressing hSNORF25 receptors; set-up: expressed in transfected cells
T3 sequence (Q8TDV5 1-335): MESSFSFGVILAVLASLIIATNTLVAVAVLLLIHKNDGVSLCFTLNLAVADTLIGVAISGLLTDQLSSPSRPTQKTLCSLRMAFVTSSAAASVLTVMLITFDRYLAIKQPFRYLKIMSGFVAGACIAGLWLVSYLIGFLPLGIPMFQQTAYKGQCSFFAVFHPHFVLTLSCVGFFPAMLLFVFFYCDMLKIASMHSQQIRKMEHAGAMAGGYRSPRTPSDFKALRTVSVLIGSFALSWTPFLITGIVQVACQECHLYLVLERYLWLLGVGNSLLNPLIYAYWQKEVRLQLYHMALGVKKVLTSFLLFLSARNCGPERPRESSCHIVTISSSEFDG
Method: CHO cells are grown on 150 mm plates in HAM's F-12 medium with supplements (10% bovine calf serum, 4 mM L-glutamine and 100 units/ml penicillin/100 μg/ml streptomycin) at 37° C., 5% CO2. Stock plates of CHO cells are trypsinized and split 1:8 every 3–4 days.
Heterologous DNA can be stably incorporated into host cells, causing the cell to perpetually express a foreign protein. Methods for the delivery of the DNA into the cell are similar to those described above for transient expression but require the co-transfection of an ancillary gene to confer drug resistance on the targeted host cell. The ensuing drug resistance can be exploited to select and maintain cells that have taken up the DNA. An assortment of resistance genes are available including but not restricted to neomycin, kanamycin, and hygromycin. For the purposes of studies concerning the receptor of this invention, stable expression of a heterologous receptor protein is typically carried out in, mammalian cells including but not necessarily restricted to, CHO, HEK293, LM(tk−), etc.
(§3) The receptor-mediated stimulation or inhibition of cyclic AMP (cAMP) formation may be assayed in cells expressing the receptors. According to one method, cells are plated in 96-well plates or other vessels and preincubated in a buffer such as HEPES buffered saline (NaCl (150 mM), CaCl2 (1mM), KCl (5 mM), glucose (10 mM)) supplemented with a phosphodiesterase inhibitor such as 5 mM theophylline, with or without protease inhibitor cocktail (For example, a typical inhibitor cocktail contains 2 μg/ml aprotinin, 0.5 mg/ml leupeptin, and 10 μg/ml phosphoramidon.) for 20 min at 37° C., in 5% CO2. Test compounds are added with or without […] and incubated for an additional 10 min at 37° C. The medium is then aspirated and the reaction stopped by the addition of 100 mM HCl or other methods. The plates are stored at 4° C. for 15 min, and the cAMP content in the stopping solution is measured by radioimmunoassay. Radioactivity may be quantified using a gamma counter equipped with data reduction software. Specific modifications may be performed to optimize the assay for the receptor or to alter the detection method of cAMP.
as §3, with “According” for “The receptor-mediated stimulation or inhibition of cyclic AMP (cAMP) formation may be assayed in cells expressing the receptors. According”, “a second” for “one”, “washed 2 times with” for “plated in 96-well plates or other vessels and preincubated in a buffer such as”, “saline, as described above, and incubated overnight. On the day of the experiment, cells are washed 2 times with HEPES” for “saline (NaCl (150 mM), CaCl2 (1mM), KCl (5 mM), glucose (10 mM))”
Several other closely related analogues of PAF namely Lyso-PAF with different carbon chains also stimulated cAMP.

T1 sequence (P21728 whole entry): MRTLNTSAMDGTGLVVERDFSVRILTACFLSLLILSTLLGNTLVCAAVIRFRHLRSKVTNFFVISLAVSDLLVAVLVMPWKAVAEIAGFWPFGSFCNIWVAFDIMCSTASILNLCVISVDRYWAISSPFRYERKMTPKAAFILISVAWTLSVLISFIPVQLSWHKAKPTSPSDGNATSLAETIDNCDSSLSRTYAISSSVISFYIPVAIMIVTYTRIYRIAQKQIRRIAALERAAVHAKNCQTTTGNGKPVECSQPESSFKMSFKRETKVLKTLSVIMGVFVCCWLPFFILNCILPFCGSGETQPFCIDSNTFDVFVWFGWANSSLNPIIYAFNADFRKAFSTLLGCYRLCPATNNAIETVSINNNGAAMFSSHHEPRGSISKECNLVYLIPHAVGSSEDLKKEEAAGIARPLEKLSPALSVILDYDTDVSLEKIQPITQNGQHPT

cAMP response (dopamine D1 receptor): no response
cAMP response (serotonin 5-HT4 receptor): no response
potency lower than PAF(C18) (SNORF25; cAMP release, SNORF25 stable CHO cells (FIG. 11B)): ~3 fold
% of PAF(C18) Response (SNORF25; maximum response as % of maximum response produced by PAF(C18) (taken as 100%)): 105%
EC50 (SNORF25; mean ± S.E.M., at least 3 experiments, CHO cells stably expressing hSNORF25): 1440 ± 652 nM
Compound: CC1=C(/C=C/C(C)=C/C=C/C(C)=C/C(=O)O)C(C)(C)CCC1 [ATRA, all-trans-retinoic acid]
